The source of these data is a melting point compilation (Tetko et al.; mined from patent text by program, amines drawn as free bases though some values may be those of a salt).

As for `O=C(O)COc1cccc2c1Cc1sc(SCc3ccccc3)nc1-2`, the melting point is 166 to 169 °C.
For `O=S(=O)(CC(F)(F)F)c1nc2cc(Cl)c(Cl)cc2[nH]1` the value was 190 to 192 °C; for `CC(C)CNC(=O)C(C)NC(=O)C(C)NC(=O)C(C)NC(=O)CCCC(=O)O` (stereo unspecified), 292 to 293 °C; for `NCc1cccc(Cn2ccc(OCc3ccc(F)cc3)c(Br)c2=O)c1`, 127 to 139 °C.
With `CCNC(=O)Nc1c(C(O)(C(F)(F)F)C(F)(F)F)ccc2c1CCC2`, the melting point lay in the range of 142 to 143 °C.
`CCOC(=O)c1c(CC(=O)O)n(-c2ccc(OC(C)C)cc2)c2ccc(Oc3ncccc3C(N)=O)cc12`: the melting point was 210 to 212 °C.
Next, `N#CCCS(=O)(=O)c1ccc(S(=O)(=O)Cl)cc1`: 124 to 125 °C; `Cc1cc(C(=O)N2CCC3(CC2)CSC2=C(O3)c3ccccc3C(=O)C2=O)n(C)n1`: 244 to 245 °C; `N#CC(=O)c1ccc(Cl)c(Cl)c1`: 70 to 71 °C.
With `Cn1ccnc1Sc1ccc(Nc2c(C#N)cnc3cc(/C=C/CCN4CCCC4)ccc23)cc1Cl`, the melting point fell in the range of 185 to 191 °C.
With `Cc1cc(=O)c(-c2ccc(F)cc2)c(C)o1`, the melting point is 114 to 115 °C.
For `N#Cc1ccc(COc2cccc(C(=O)Nc3ccc(C#N)cc3)c2)cc1` the value was 205 to 207 °C; for `CC1=NC(NC(=O)Nc2cccc(C)c2)C(=O)N(CC(=O)c2ccccc2C)c2c(C)cccc21` (stereo unspecified), 128 to 136 °C; for `CCCCn1c(=O)c2c(ncn2CCCCC(C)=O)n(CCCC)c1=O`, 88 °C.
For `COc1c([N+](=O)[O-])cc(C(C)=O)c2c1CCCC2` the value was 76 to 77 °C; for `CCOC(=O)c1ccc(-c2ccc(-c3ccccc3O)c(-c3ccc4c(c3)C(C)(C)CCC4(C)C)c2)cc1`, 161 to 163 °C.
`O=C(c1ccncc1)c1cc(-c2ccc(Cl)cc2)c(N2CCOCC2)s1`: the melting point was 117 °C.
`COc1cc(CN(C)CCCOc2ccc(NC(=O)c3cccc4c(=O)c5cccc(OC)c5[nH]c34)cc2)cc(OC)c1OC` displayed a melting point of 186 °C.
As to `Cc1ccc(-c2ccc(C(=O)Nc3ccc4cc(CN5CCCC5)cnc4c3)cc2)cc1`, the melting point was 206 to 208 °C.
The compound `O=C(O)Cc1cc([N+](=O)[O-])ccc1Oc1ccc(F)cc1` came in with a melting point of 129 to 130 °C.
Next, `C=CCc1c(C(=O)OCC)nc2ccccc2c1O`: 146 to 147 °C.
In the case of `Cc1noc(C)c1S(=O)(=O)n1c(COC(C)C(=O)O)cc2cc(Cl)ccc21` (stereo unspecified), the melting point lay in the range of 110 to 112 °C.
The compound `COc1ccc(-c2nn3c(SC)nnc3c3ccccc23)cc1` showed a melting point of 218 to 220 °C.
For the compound `Clc1cccc2c1CNC2`, the melting point lay within 48 to 50 °C.
Take `Cn1c2cc(Cl)ccc2c(=O)c2c(Br)cccc21`: the melting point is 223 to 225 °C.
As to `CCCCCC(O)CNCCCCCCNCC(O)CCCCC` (stereo unspecified), the melting point lay in the range of 131 to 134 °C.
Take `C=CCN1Cc2nc3c(cnn3CCC#CC)c(N)c2C1=O`: the melting point fell in the range of 192 to 194 °C.
Turning to `CC(NC(=O)c1ccc(I)cc1)C(O)c1ccccc1` (stereo unspecified), the melting point lay within 209 to 210 °C.
The compound `Cc1c(Cl)ccc2c3c([nH]c12)[C@@]1(CC(=O)O)CC[C@H]1CC3` (relative stereo) displayed a melting point of 189 to 190 °C.
Compound `COC(=O)OC(C)OC1=C(C(=O)Nc2ccccn2)N(C)S(=O)(=O)c2ccccc21` (stereo unspecified) yielded a melting point of 150 to 151 °C.
Compound `CCOC(=O)C1(CCCN(C)C)CCCCC1(O)c1ccccc1` (stereo unspecified) registered a melting point of 97 to 99 °C.
For the compound `Nc1ncnc2c1ncn2[C@@H]1C[C@H](O)[C@@H](O)[C@H]1O` (racemic), the melting point turned out to be 282 °C.
Compound `COC(=O)c1ccc(-c2nnc(-c3ccc(C(C)(C)C)cc3)o2)cc1` displayed a melting point of 210 to 211 °C.
Compound `CCNc1ccc2c(c1)N1CCN=C1S2` registered a melting point of 239 to 246 °C.
On to `COc1ccc(CS[C@H]2C[C@@H](C(=O)N3CCN(C)CC3)N(C(=O)OCc3ccc([N+](=O)[O-])cc3)C2)cc1`, for which the melting point was 140 to 141 °C.
`O=C1NC(=O)c2c1c(-c1cc([N+](=O)[O-])cc([N+](=O)[O-])c1)cc1[nH]c3ccc(O)cc3c21` returned a melting point of over 330 °C.
`CCOCc1cc2ccc(OCc3ccccc3)cc2oc1=O` came in with a melting point of 122 to 124 °C.
`CCCN1N=C2C(=Cc3ccc(OC)cc3)CSCC2C1c1ccc(OC)cc1` (stereo unspecified) displayed a melting point of 150 to 152 °C.
The compound `CCOC(=O)c1cnn(-c2ccc(OC(F)(F)F)cc2)c1N` showed a melting point of 102 to 103 °C.
The compound `O=C1C(CCC(O)c2ccc(F)cc2)C(c2ccc(-c3ccccc3O)cc2)N1c1ccc(F)cc1` (stereo unspecified) yielded a melting point of 101 °C.
`O=C(c1ccc(O)cc1)c1sc2ccc(O)cc2c1-c1ccccc1`: the melting point lay within 152 to 153 °C.
As for `COC(=O)c1ccc2sc(C(=O)OC)c(O)c2c1Cl`, the melting point fell in the range of 127 to 131 °C.
In turn, `O=[N+]([O-])c1ccc2c(ccn2Cc2ccncc2)c1` yielded a melting point of 134 to 136 °C.
For `C1COCCNCCSCCN1` the value was 74 to 76 °C.
`CCc1ccc2c(c1)NC(=O)C2=O`: the melting point fell in the range of 128 to 136 °C.
`O=C(O)CN1C(=O)C(=Cc2ccc(OCc3ccccc3)c(OCc3ccccn3)c2)SC1=S` gave a melting point of 204 to 207 °C.
For the compound `Fc1cc2c(cc1F)CC(n1cc[nH]c1=S)CC2` (stereo unspecified), the melting point was 206 to 207 °C.
`CCCCCCN(C(=O)Cc1ccccc1)c1nnc(C)s1` came in with a melting point of 90 °C.
Next, `CCOC(=O)CCc1cccc(N(C)C)c1`: 94 to 98 °C; `N#CCCNNC(=S)c1ccc(OCc2ccccc2)cc1`: 135 °C; `Nc1c(C(=O)O)c(=O)[nH]c2cc(Cl)ccc12`: over 330 °C.
`N#CSc1ccc(N)c([N+](=O)[O-])c1` had a melting point of 110 to 112 °C.
Next, `CN(C[C@@H](CCO)c1ccc(Cl)c(Cl)c1)C(=O)c1ccccc1`: 123 to 125 °C; `CCCCc1nc2c(N)nc3c(c2n1CCCCN)CCCC3`: 63 to 67 °C; `COC1(c2nc(Br)c(Sc3ccc(/C(C)=N/O)cc3)s2)CCOCC1`: 130 °C.
`O=C[C@H](Cc1c[nH]c2ccccc12)NC(=O)[C@H](Cc1ccccc1)NC(=O)OCc1ccccc1`: the melting point was in the range of 74 to 77 °C.
Next, `COc1ccccc1-c1nc2cc(NC(=O)c3c(C(=O)N4CCC4)cnn3C)ccn2n1`: 258 °C; `COC(=O)c1ccc(OC)c2c1OCCCO2`: 212 °C; `O=C(CCC12CCC(=O)N1C(=O)CC2)OCc1ccccc1`: 80 to 82 °C.
Consider `O=C(CCC1CCCCC1)C1=C(O)COC1=O`, for which the melting point was in the range of 75 to 78 °C.
Take `COC(=O)C(Cc1ccc(OC)c(C(=O)NCc2ccc(C(F)(F)F)cc2)c1)SC` (stereo unspecified): the melting point is 127 to 128 °C.
As to `Cc1nc(CNc2c(C)cccc2C)n[nH]1`, the melting point was in the range of 125 to 126 °C.
The compound `Nc1nc(Cl)cc(NCCO)n1` had a melting point of 143 to 146 °C.
In turn, `OC(CNC12N=CN=CC1=NC=N2)CN1CCN(C(c2ccc(F)cc2)c2ccc(F)cc2)CC1` (stereo unspecified) gave a melting point of 140 to 170 °C.
`NS(=O)(=O)c1ccccc1CSc1ncccn1` returned a melting point of 128 to 130 °C.
Compound `Cc1nc(CNC(=O)c2sc(-n3cnn(Cc4ccc(F)cc4)c3=O)cc2C)cs1` displayed a melting point of 148 to 150 °C.
Regarding `O=C(O)c1ccccc1Nc1c(O)ccc2ccccc12`, the melting point fell in the range of 214 to 217 °C.
With `O=C(O)C1=Cc2cc(Cl)c(Oc3ccc(C(=O)O)cc3Cl)cc2OC1C(F)(F)F` (stereo unspecified), the melting point was over 300 °C.
For `CCOC(=O)C1=C[C@@H](OC(CC)CC)[C@H](NC(C)=O)[C@@H](NC(=O)OC(C)(C)C)C1` the value was 144 to 145 °C; for `COc1c(F)cc(CCCn2nnnc2S)cc1F`, 64 to 65 °C; for `OCC1OC(n2cnc3c(N4CCCC4)nc(Cl)nc32)C(O)C1O` (stereo unspecified), 229 °C.
Take `O=C(O)c1cc(-c2ccncc2)n[nH]c1=O`: the melting point is over 310 °C.
`CC(N)=CC(=O)NC1CCCC1`: the melting point lay within 138 to 139 °C.
As to `CC(C)(C)CC(C)(C)c1ccc(Oc2cc3nc(-c4ccccc4)oc3cc2[N+](=O)[O-])cc1`, the melting point lay within 183 to 185 °C.
The compound `O=C(Cc1cccnc1)c1ccc(Cl)cc1Cl` displayed a melting point of 55 to 56 °C.
Turning to `O=[N+]([O-])c1ccc(SSc2ncccn2)c(C(Cl)(Cl)Cl)c1`, the melting point is 98 to 99 °C.
`CC(C)(O)c1nnc2ccc(-c3c(-c4ccc(F)cc4F)nc4occn34)nn12` displayed a melting point of 258 to 260 °C.
As for `N#Cc1ccc(Oc2ccc(CC(=O)O)cc2)nc1`, the melting point lay in the range of 148 to 151 °C.
As to `CSc1cc(C)nc(SC)c1NC(=O)CCCCCCSc1nc2cccc(C(F)(F)F)c2o1`, the melting point lay within 129 to 131 °C.
For `C1CCCCCC(=NOC(=NC2CCCCC2)NC2CCCCC2)CCCCC1` the value was 108 to 111 °C.
With `O=C(Nc1cnc(-c2ccccc2)nc1C(=O)O)OCc1ccc(-c2ccccc2)cc1`, the melting point was determined as 173 °C.
As to `CCC(=O)OC1(C)CCCC2C3C=CC(C3)C21` (stereo unspecified), the melting point turned out to be 30 °C.
`COCCOc1cc2ncnc(Nc3cc(OC)c(Br)cc3OC)c2cc1OC`: the melting point fell in the range of 217 to 221 °C.
For `COC(=O)c1cccc(OCc2ccc3ccccc3c2)c1C`, the melting point is 47 to 48 °C.
Turning to `O=S1(=O)N=CN(C2CCCC2)c2cc(Cl)c(Cl)cc21`, the melting point fell in the range of 189 to 191 °C.
The compound `COc1ccc2nc3c([N+](=O)[O-])ccc(Cl)c3c(Cl)c2c1` showed a melting point of 243 to 246 °C.
For `O=C(O)COc1ccc(SCc2cc(-c3ccc(Cl)cc3)on2)c2c1CCC2` the value was 112 to 114 °C; for `CN1CCc2ccc(OCCCCN3CCN(c4cccc(Cl)c4Cl)CC3)cc2NC1=O`, 139 to 140 °C; for `O=C(Nc1ccccc1)N1CCC(C(Nc2ccc(F)cc2)c2ccc(F)cc2)CC1` (stereo unspecified), 96 to 101 °C.
In the case of `c1cncc(Cn2c(-c3ccc4c(c3)OCO4)nc3ccccc32)c1`, the melting point was in the range of 152 to 153 °C.
`CCC(=O)N(OC(=O)NC)C(=O)NC` showed a melting point of 90.5 to 92.5 °C.

As usually defined, the melting point is the temperature, or range, at which the solid turns liquid.
